Laboratory results taken from article PMC12000319, “Proton conductance by human uncoupling protein 1 is inhibited by purine and pyrimidine nucleotides” (The EMBO Journal, 2025).
“And” between values parts separate entries of the source, which are not always exact repeats. Equal values may be shown once. Read-outs that look alike come from different tables or passages of the source.

Experiments:
UCP1 [1] = biological target: T1, UCP1 (Homo sapiens, UniProt P25874); assay: Differential scanning fluorimetry (nanoDSF) thermal stability shift assay; assay type: binding; conditions: for ΔTm at 1000 µM: read-out: thermal shift (ΔTm)
T1 construct: His8 (N, cleaved yes); Factor Xa protease cleavage site (N, cleaved yes); made in house; host or cells: Saccharomyces cerevisiae strain W303.1B
T1 sequence (P25874 1-307): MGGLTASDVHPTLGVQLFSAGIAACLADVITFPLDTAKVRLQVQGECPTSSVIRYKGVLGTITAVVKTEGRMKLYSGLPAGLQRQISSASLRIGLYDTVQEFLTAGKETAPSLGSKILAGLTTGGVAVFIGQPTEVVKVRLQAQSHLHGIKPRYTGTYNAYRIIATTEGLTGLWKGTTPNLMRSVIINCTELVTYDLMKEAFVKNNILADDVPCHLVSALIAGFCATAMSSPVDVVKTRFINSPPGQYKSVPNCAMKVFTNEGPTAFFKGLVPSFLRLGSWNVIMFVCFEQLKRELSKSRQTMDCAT

human DIC (SLC25A10) = biological target: T2, human DIC (SLC25A10) (Homo sapiens, UniProt Q9UBX3); assay: as above; assay type: binding; conditions: 1 mM nucleotide, pH 6.0, single repeats (source data Fig. 4A)
T2 construct: His8 (N, cleaved yes); Factor Xa protease cleavage site (N, cleaved yes); made in house; host or cells: Saccharomyces cerevisiae protease-deficient strain BJ2186
T2 sequence (Q9UBX3 1-287): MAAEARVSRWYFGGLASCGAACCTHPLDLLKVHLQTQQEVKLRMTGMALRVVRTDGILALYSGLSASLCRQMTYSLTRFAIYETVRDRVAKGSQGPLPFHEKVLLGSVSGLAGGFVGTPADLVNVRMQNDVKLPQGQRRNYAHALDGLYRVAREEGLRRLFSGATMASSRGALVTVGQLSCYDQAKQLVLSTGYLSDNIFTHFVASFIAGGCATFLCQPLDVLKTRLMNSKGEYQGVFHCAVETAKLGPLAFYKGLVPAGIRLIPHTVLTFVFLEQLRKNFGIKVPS

UCP1 [2] = biological target: T1, UCP1; assay: Isothermal titration calorimetry of nucleotide binding; design: isotherm data point (enthalpy change per injection): unit not given here; conditions: for isotherm data point (enthalpy change per injection): representative isotherm, pH 6.0, 20 °C;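 for all read-outs here: purified human UCP1 in cacodylate buffer with lauryl maltose neopentyl glycol and cardiolipin, titrated with nucleotides, isotherms fitted by one-site model yielding ΔH, Kd and stoichiometry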
UCP1 [3] = tested on: UCP1; design: method as in Heaton and Nicholls, 1977; Divakaruni et al, 2012; conditions: whole mitochondria; ref Heaton and Nicholls, 1977; Divakaruni et al, 2012; cited from earlier work
UCP1 [4] = tested on: UCP1; design: method as in Heaton and Nicholls, 1977; conditions: ref Heaton and Nicholls, 1977; cited from earlier work

temperature shift (ΔTm) (UCP1 [1]; 1 mM nucleotide, pH 6.0, detergent-solubilised UCP1, mean of three biological repeats): 15.3 °C
effect of Ca2+ or Mg2+ on nucleotide binding to UCP1 (ΔTm) (UCP1 [1]; 1 mM nucleotide, pH 6.0, range of Ca2+ or Mg2+ concentrations, until supramaximal concentrations): no difference for either cation
ΔTm at 1000 µM (UCP1 [1]; pH 6, 1 mM nucleotide, pH 6.0, single repeats (source data Fig. 1D)): 15.7 °C
ΔTm at 1000 µM (UCP1 [1]; pH 6.5, 1 mM nucleotide, pH 6.5, single repeats (source data Fig. 1D)): 11.1 °C
ΔTm at 1000 µM (UCP1 [1]; pH 7, 1 mM nucleotide, pH 7.0, single repeats (source data Fig. 1D)): 6.3 °C
ΔTm at 1000 µM (UCP1 [1]; pH 7.5, 1 mM nucleotide, pH 7.5, single repeats (source data Fig. 1D)): 1.4 °C
change in apparent melting temperature (ΔTm) of hDIC (human DIC (SLC25A10)): 0.8 and 0.6
binding affinity to UCP1 (in words) (UCP1 [2]; ITC): intermediary affinities
isotherm data point (enthalpy change per injection) (UCP1 [2]; Molar ratio (Nucleotide/UCP) 0.120417): -22.5081
isotherm data point (enthalpy change per injection) (UCP1 [2]; Molar ratio (Nucleotide/UCP) 0.181226): -22.8003
isotherm data point (enthalpy change per injection) (UCP1 [2]; Molar ratio (Nucleotide/UCP) 0.242439): -21.4037
isotherm data point (enthalpy change per injection) (UCP1 [2]; Molar ratio (Nucleotide/UCP) 0.304059): -20.9646
isotherm data point (enthalpy change per injection) (UCP1 [2]; Molar ratio (Nucleotide/UCP) 0.366087): -21.4794
isotherm data point (enthalpy change per injection) (UCP1 [2]; Molar ratio (Nucleotide/UCP) 0.428528): -19.8691
isotherm data point (enthalpy change per injection) (UCP1 [2]; Molar ratio (Nucleotide/UCP) 0.491383): -17.9061
isotherm data point (enthalpy change per injection) (UCP1 [2]; Molar ratio (Nucleotide/UCP) 0.554656): -18.3443
isotherm data point (enthalpy change per injection) (UCP1 [2]; Molar ratio (Nucleotide/UCP) 0.618348): -16.1153
isotherm data point (enthalpy change per injection) (UCP1 [2]; Molar ratio (Nucleotide/UCP) 0.682464): -14.9337
isotherm data point (enthalpy change per injection) (UCP1 [2]; Molar ratio (Nucleotide/UCP) 0.747006): -12.0255
isotherm data point (enthalpy change per injection) (UCP1 [2]; Molar ratio (Nucleotide/UCP) 0.811976): -11.5031
isotherm data point (enthalpy change per injection) (UCP1 [2]; Molar ratio (Nucleotide/UCP) 0.877378): -10.3349
isotherm data point (enthalpy change per injection) (UCP1 [2]; Molar ratio (Nucleotide/UCP) 0.943214): -7.729
isotherm data point (enthalpy change per injection) (UCP1 [2]; Molar ratio (Nucleotide/UCP) 1.00949): -6.6657
isotherm data point (enthalpy change per injection) (UCP1 [2]; Molar ratio (Nucleotide/UCP) 1.0762): -5.447
isotherm data point (enthalpy change per injection) (UCP1 [2]; Molar ratio (Nucleotide/UCP) 1.14336): -3.759
isotherm data point (enthalpy change per injection) (UCP1 [2]; Molar ratio (Nucleotide/UCP) 1.21096): -3.295
isotherm data point (enthalpy change per injection) (UCP1 [2]; Molar ratio (Nucleotide/UCP) 1.27901): -1.9786
isotherm data point (enthalpy change per injection) (UCP1 [2]; Molar ratio (Nucleotide/UCP) 1.34751): -1.408
isotherm data point (enthalpy change per injection) (UCP1 [2]; Molar ratio (Nucleotide/UCP) 1.41647): -0.3952
isotherm data point (enthalpy change per injection) (UCP1 [2]; Molar ratio (Nucleotide/UCP) 1.48589): -0.4843
isotherm data point (enthalpy change per injection) (UCP1 [2]; Molar ratio (Nucleotide/UCP) 1.55577): -0.1953
isotherm data point (enthalpy change per injection) (UCP1 [2]; Molar ratio (Nucleotide/UCP) 1.62611): -0.1185
isotherm data point (enthalpy change per injection) (UCP1 [2]; Molar ratio (Nucleotide/UCP) 1.69692): 0.2895
isotherm data point (enthalpy change per injection) (UCP1 [2]; Molar ratio (Nucleotide/UCP) 1.76819): -0.544
isotherm data point (enthalpy change per injection) (UCP1 [2]; Molar ratio (Nucleotide/UCP) 1.83995): -0.2075
isotherm data point (enthalpy change per injection) (UCP1 [2]; Molar ratio (Nucleotide/UCP) 1.91217): -0.08977
isotherm data point (enthalpy change per injection) (UCP1 [2]; Molar ratio (Nucleotide/UCP) 1.98488): 0.02152
Compound: O=c1ccn([C@@H]2O[C@H](CO[P@@](=O)(O)O[P@@](=O)(O)OP(=O)(O)O)[C@@H](O)[C@H]2O)c(=O)[nH]1 (stereo in doubt) [UTP, uridine triphosphate]
competition with GDP binding (UCP1 [3]): could only weakly compete with GDP binding
inhibition of proton conductance (UCP1 [4]): significantly lower than that of purine nucleotides
